Test results reported in PMC8958505, “Discovery of Potential Neuroprotective Agents against Paclitaxel-Induced Peripheral Neuropathy” (Journal of Medicinal Chemistry, 2022).
Counter-ions that a name gives are not always drawn. Like-named read-outs stand apart in the source and are kept apart here.

Columns and labels:
[1] = tested on: mouse primary DRG neurons; assay: Neurite outgrowth assay of DRG neurons (image-based HCS) against paclitaxel-induced neurotoxicity; type: cell-based; details: for activation at 1 µM: Mus musculus, DRG neuron; for protective efficacy against paclitaxel-induced neurotoxicity (in words): pretreated, + 50 nM paclitaxel
Method: All these 19 compounds were then subjected to the neurite outgrowth assay of dorsal root ganglion (DRG) neurons paired with an image-based HCS to analyze whether they had neuroprotective potential. Quantification of neurite outgrowth under different regimens is shown in Figure 3, wherein DRG neurons incubated in 50 nM paclitaxel could cause 60% reduction in neurite outgrowth compared to the control (no drug treatment). […] Taken together, CN016 is selected as a promising lead for further development.
Primary cortical or DRG cells were fixed with 4% paraformaldehyde for 15 min following compound and paclitaxel treatment. After washing with PBS, the fixed cells were permeabilized with PBS containing 0.05% Triton X-100 for 20 min and then blocked with commercial blocking buffer (#GTX30963; GeneTex, USA) at room temperature for 1 h. Subsequently, the cortical cells were stained for the extending processes and synaptic puncta by using anti-MAP2 (#MBS502140, 1:500; Mybiosource, USA) and anti-synaptophysin (#ab32127, 1:500; Abcam, UK) overnight. DRG cells were stained for the neurite and neuron nucleus by using anti-β III tubulin (#D71G9, 1:600; Cell Signaling, USA) and anti-NeuN monoclonal antibody (#MAB377, 1:400; Millipore, USA) overnight. On the second day, the samples were washed for 30 min with wash buffer and incubated with secondary antibodies (Alexa-488, 647 1:600; Thermo Fisher, USA) and 4 μg/mL Hoechst 33258 (#94403-1ML, 1:100; Merck, USA) at room temperature for 1 h. In the initial experiments of screening the potential neuroprotective compound for CIPN, ImageXpress^Micro (IXM) high-content imaging system (Molecular Devices, USA) driven by MetaXpress software was used. Images of treated cells were automatically acquired by using a 10× objective. Twenty-one images per well were taken in each of three channels (DAPI, FITC, and Cy5) to create a whole view of the entire neural network. The integrity of the neural network was evaluated using TIF images by importing them into MetaXpress software for analysis using the module for multiparameter, such as Neurite Outgrowth, Cell Scoring, and Transfluor. Furthermore, the score of synaptogenesis was analyzed in AcuityXpress software (Molecular Devices, USA).

sciatic nerve fibers = assay: Ultrastructure evaluation of the sciatic nerve (TEM); type: in vivo, mouse; details: paclitaxel 4.5 mg/kg x 4
Description: Sciatic nerves were isolated from mice after drug treatment and behavioral tests to examine the ultrastructure of nerve fibers. […] To evaluate the integrity of myelin, we calculated the G-ratio (axon perimeter/myelin perimeter) in different treatment groups. Because the symptoms of PIPN mostly manifest with sensory impairment,[28] we roughly classified nerve fibers into larger fibers (diameter > 5 μm) and small fibers (diameter < 5 μm) depending on the type of sensory information conveyed.[29] Large fibers with greater than 5 μm diameter carry information related to proprioception, touch, and pressure. In contrast, small fibers with less than 5 μm diameter carry information related to temperature and pain.
Sciatic nerve samples from mice from each treatment group were isolated after the last time point of mouse behavioral tests. Fixation of sciatic nerves with 4% glutaraldehyde and post fixation with 1% osmium tetroxide solution at 4 °C were performed. […] Transmission electron microscopy (H7650, Hitachi) was used to observe the ultrastructure in the cross section of the sciatic nerves.

primary cortical neurons [2] = assay: Synaptogenesis assay of primary cortical neurons (image-based HCS) against paclitaxel-induced neurotoxicity; type: cell-based, mouse; details: Mus musculus, Primary cortical neuron; test compound 1000 nM + paclitaxel 1 μM; mean ± SE; read-out: B: Synaptogenesis (% of control) of test compound (1000 nM) + paclitaxel (1 μM)
In short: (§1)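 Cortical neurons from P0 C57BL/6J mouse pups pretreated with compound at 10 and 1000 nM before 1 μM paclitaxel. Cells fixed and immunostained for MAP2 (processes), synaptophysin (synaptic puncta) and Hoechst, then imaged by automated high-content microscopy at 10×. Neurite outgrowth and synaptogenesis scored from multiparameter image analysis.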

primary cortical neurons [3] = assay: Neurite outgrowth assay of primary cortical neurons (image-based HCS) against paclitaxel-induced neurotoxicity; type: cell-based, mouse; details: Mus musculus, Primary cortical neuron; test compound 1000 nM + paclitaxel 1 μM; mean ± SE; read-out: D: Neurite outgrowth (% of control) of test compound (1000 nM) + paclitaxel (1 μM)
In short: as §1

mice = tested on: mice; design: method as in PMID 28349969; details: cited from earlier work
[4] = tested on: paclitaxel-induced neuropathy in mice; design: method as in PMID 28349969; details: up to 25 mg/kg; cited from earlier work
[5] = Table 1, A: neurite outgrowth (% of control) of test compound 1000 nM + paclitaxel 50 nM, B: paclitaxel 50 nM alone, DRG neurons, read-out: Neuroprotection rate = (A-B)±S.E.M [%]
[6] = supplementary CSV, test compound 1000 nM, read-out: A-B (A: neurite outgrowth (% of control) of test compound (1000 nM) + paclitaxel (50 nM), B: of paclitaxel (50 nM))
[7] = Table S2, test compound 1000 nM + paclitaxel 50 nM minus paclitaxel 50 nM, read-out: Neuroprotection rate = (A-B) ± S.E.M [%]

Structure (SMILES) | activation at 1 µM [1, 5] | activation at 1 µM [1, 6] | activation at 1 µM [1, 7] | further results
CC(=O)O[C@H]1C(=O)[C@@]2(C)[C@H]([C@H](OC(=O)c3ccccc3)[C@]3(O)C[C@H](OC(=O)[C@H](O)[C@@H](NC(=O)c4ccccc4)c4ccccc4)C(C)=C1C3(C)C)[C@]1(OC(C)=O)CO[C@@H]1C[C@@H]2O [paclitaxel, Paclitaxel] | – | – | – | reduction in neurite outgrowth compared to the control ([1]; 50 nM paclitaxel, DRG neurons): 60%; fiber loss (myelinated fiber density) (sciatic nerve fibers): 25%
Nc1cc(N2CCCCC2)nc(N)[n+]1[O-] [Minoxidil, reference compound] | 15 ± 1.41% | – | – | activity at 1 µM (primary cortical neurons [2]): 58 ± 8%; activity at 1 µM (primary cortical neurons [3]): 66 ± 3%; dose causing hypotension (mice): 50 mg/kg; dose causing tachycardia (mice): 25 mg/kg; protective effect on paclitaxel-induced neuropathy in behavior tests [4]: no protective effect
CC(O)CCn1cc(CNc2nc(NC3CCN(CCP(=O)(O)O)CC3)cc(N3CCOCC3)n2)nn1 (centres unmarked) [CN026, {2-[4-(2-{[1-(3-Hydroxy-butyl)-1H-[1,2,3]triazol-4-ylmethyl]-amino}-6-morpholin-4-yl-pyrimidin-4-ylamino)-piperidin-1-yl]-ethyl}-phosphonic Acid Hydrobromide Salt] | 11 ± 1.48% | 11% | – | –
COC(=O)CCOCCCn1cc(CNc2nc(NC3CCN(Cc4ccccc4)CC3)cc(N3CCOCC3)n2)nn1 [CN002, 3-[3-(4-{[4-(1-Benzyl-piperidin-4-ylamino)-6-morpholin-4-yl-pyrimidin-2-ylamino]-methyl}-[1,2,3]triazol-1-yl)-propoxy]-propionic Acid Methyl Ester] | – | -4% | -4 ± 0.81% | –
OCCCn1cc(CNc2nc(NC3CCN(Cc4ccccc4)CC3)cc(N3CCOCC3)n2)nn1 [CN004, 3-(4-{[4-(1-Benzyl-piperidin-4-ylamino)-6-morpholin-4-yl-pyrimidin-2-ylamino]-methyl}-[1,2,3]triazol-1-yl)-propan-1-ol] | -1 ± 3.2% | 1% | 1 ± 3.2% | –
CC(C)(O)CCn1cc(CNc2nc(NC3CCN(CCP(=O)(O)O)CC3)cc(N3CCOCC3)n2)nn1 [CN027, {2-[4-(2-{[1-(3-Hydroxy-3-methyl-butyl)-1H-[1,2,3]triazol-4-ylmethyl]-amino}-6-morpholin-4-yl-pyrimidin-4-ylamino)-piperidin-1-yl]-ethyl}-phosphonic Acid Hydrobromide Salt] | 5 ± 0.93% | 5% | – | –
COC(=O)CCN1CCC(Nc2cc(N3CCOCC3)nc(NCc3cn(CCCO)nn3)n2)CC1 [CN009, 3-[4-(2-{[1-(3-Hydroxy-propyl)-1H-[1,2,3]triazol-4-ylmethyl]-amino}-6-morpholin-4-yl-pyrimidin-4-ylamino)-piperidin-1-yl]-propionic Acid Methyl Ester] | – | 15% | 15 ± 1.28% | protective efficacy against paclitaxel-induced neurotoxicity (in words) ([1]; DRG neurons): exhibited protective efficacy
NCCCn1cc(CNc2nc(NC3CCN(C(=O)CCNC(=O)C4(O)CC(O)C(O)C(O)C4)CC3)cc(N3CCOCC3)n2)nn1 (centres unmarked) [CN006, 1,3,4,5-Tetrahydroxy-cyclohexanecarboxylic Acid {3-[4-(2-{[1-(3-Amino-propyl)-1H-[1,2,3]triazol-4-ylmethyl]-amino}-6-morpholin-4-yl-pyrimidin-4-ylamino)-piperidin-1-yl]-3-oxo-propyl}-amide Hydrochloride Salt] | – | 4% | 4 ± 1.44% | –
COC(=O)CCOCCCn1cc(CNc2nc(NC3CCN(CCC(=O)OC)CC3)cc(N3CCOCC3)n2)nn1 [CN011, 3-{3-[4-({4-[1-(2-Methoxycarbonyl-ethyl)-piperidin-4-ylamino]-6-morpholin-4-yl-pyrimidin-2-ylamino}-methyl)-[1,2,3]triazol-1-yl]-propoxy}-propionic Acid Methyl Ester] | – | 4% | 4 ± 4.1% | –
COC(=O)CCOCCCn1cc(CNc2nc(NC3CCN(Cc4ccc5ccccc5c4)CC3)cc(N3CCOCC3)n2)nn1 [CN005, 3-[3-(4-{[4-Morpholin-4-yl-6-(1-naphthalen-2-ylmethyl-piperidin-4-ylamino)-pyrimidin-2-ylamino]-methyl}-[1,2,3]triazol-1-yl)-propoxy]-propionic Acid Methyl Ester] | – | -3% | -3 ± 0.41% | –
O=P(O)(O)CCN1CCC(Nc2cc(N3CCOCC3)nc(NCc3cn(CCCCO)nn3)n2)CC1 [CN021, {2-[4-(2-{[1-(4-Hydroxy-butyl)-1H-[1,2,3]triazol-4-ylmethyl]-amino}-6-morpholin-4-yl-pyrimidin-4-ylamino)-piperidin-1-yl]-ethyl}-phosphonic Acid Hydrobromide Salt] | 8 to 11% | 11% | – | –
O=P(O)(O)CCN1CCC(Nc2cc(N3CCOCC3)nc(NCc3ccc(CCO)cc3)n2)CC1 [CN019] | – | -2% | -2 ± 1.2% | protective efficacy against paclitaxel-induced neurotoxicity (in words) ([1]; DRG neurons): inactive
CCOP(=O)(CCN1CCC(Nc2cc(N3CCOCC3)nc(NCc3cn(CCCOCCC(=O)OC)nn3)n2)CC1)OCC [CN015, 3-(3-{4-[(4-{1-[2-(Diethoxy-phosphoryl)-ethyl]-piperidin-4-ylamino}-6-morpholin-4-yl-pyrimidin-2-ylamino)-methyl]-[1,2,3]triazol-1-yl}-propoxy)-propionic Acid Methyl Ester] | – | 3% | 3 ± 1.11% | –
O=C(CCNC(=O)C1(O)CC(O)C(O)C(O)C1)N1CCC(Nc2cc(N3CCOCC3)nc(NCc3cn(CCCNCCO)nn3)n2)CC1 (centres unmarked) [CN007, 1,3,4,5-Tetrahydroxy-cyclohexanecarboxylic Acid (3-{4-[2-({1-[3-(2-Hydroxy-ethylamino)-propyl]-1H-[1,2,3]triazol-4-ylmethyl}-amino)-6-morpholin-4-yl-pyrimidin-4-ylamino]-piperidin-1-yl}-3-oxo-propyl)-amide Hydrochloride Salt] | – | 7% | 7 ± 1.05% | –
